Data taken from article PMC6891444, “Immune Checkpoint PD-1/PD-L1 CTLA-4/CD80 are Blocked by Rhus verniciflua Stokes and its Active Compounds” (Molecules, 2019).

molecular target: T1, CTLA-4/CD80 interaction (Homo sapiens, UniProt P16410); assay: CTLA-4/CD80 competitive ELISA (Inhibitor Screening Assay Kit); type: binding; details: mean of three independent replicates, read-out: IC50, CTLA-4/CD80 blocking effect
T1 construct: purchased BPS Bioscience #71149 (CTLA-4); #71114 (biotinylated CD80)
T1 sequence (P16410 37-162 limits assumed): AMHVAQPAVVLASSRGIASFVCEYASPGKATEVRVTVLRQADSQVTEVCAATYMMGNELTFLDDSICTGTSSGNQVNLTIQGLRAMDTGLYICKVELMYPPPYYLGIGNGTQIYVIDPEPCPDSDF
Protocol: Competitive ELSIA was performed using a PD–1/PD-L1 or CTLA-4/CD80 Inhibitor Screening Assay Kit, according to the supplier’s instructions. An aliquot of 1 μg/mL recombinant human PD-L1 (BPS Bioscience, #71104) or CTLA-4 (BPS Bioscience, #71149) were coated onto a 96-well plate overnight. Plates were washed with phosphate-buffered saline (PBS) containing 0.1% Tween (PBS-T), blocked for 1 h at room temperature with PBS-T containing 2% (w/v) bovine serum albumen, and washed again. After washing, vehicle or test samples were added, and the reaction continued for 1 h. As a positive control, PD-L1 inhibitor C1 or anti-CTLA-4 neutralizing antibody were used. Biotinylated hPD–1 (BPS Bioscience, #71109) or biotinylated hCD80 (BPS Bioscience, #71114) was added to each well, and plates were incubated for 2 h at room temperature. After three washes with PBS-T, diluted streptavidin-horseradish peroxidase (HRP) was added to each well, and plates were reacted for 1 h while shaking at low speed. After the reaction, plates were washed three times with PBS-T, and HRP substrates A and B were added. Relative chemiluminescence was measured on a SpectraMax L Luminometer (Molecular Devices, San Jose, California, USA) and expressed as the relative binding activity. The results were normalized to the relative percentage of the vehicle control group. Half-maximal inhibitory concentration (IC50) was calculated using Prism “log[inhibitor] vs. normalized response” equation.

In order of falling IC50:
1. O=C1c2c(O)cc(O)cc2OC(c2ccc(O)c(O)c2)C1O (stereo not shown) [Compound 5, taxifolin]  35.5 µM
2. O=C(O)/C=C/c1ccc(O)c(O)c1 [Compound 19, caffeic acid]  10 µM
3. O=C(O)c1ccc(O)c(O)c1 [Compound 2, protocatechuic acid]  4.51 µM

molecular target: T2, PD-1/PD-L1 interaction (Homo sapiens, UniProt Q9NZQ7); assay: PD-1/PD-L1 competitive ELISA (Inhibitor Screening Assay Kit); type: binding; details: mean of three independent replicates, read-out: IC50, PD-1/PD-L1 blocking effect
T2 construct: purchased BPS Bioscience #71104 (PD-L1); #71109 (biotinylated PD-1)
T2 sequence (Q9NZQ7 19-239 limits assumed): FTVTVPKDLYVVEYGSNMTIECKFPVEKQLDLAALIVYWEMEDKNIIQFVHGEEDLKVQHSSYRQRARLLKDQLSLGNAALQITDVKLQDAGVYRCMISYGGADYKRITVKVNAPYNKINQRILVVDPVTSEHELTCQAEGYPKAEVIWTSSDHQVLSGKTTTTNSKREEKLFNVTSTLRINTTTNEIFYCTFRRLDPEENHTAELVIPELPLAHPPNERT
Protocol: Competitive ELSIA was performed using a PD–1/PD-L1 or CTLA-4/CD80 Inhibitor Screening Assay Kit, according to the supplier’s instructions. An aliquot of 1 μg/mL recombinant human PD-L1 (BPS Bioscience, #71104) or CTLA-4 (BPS Bioscience, #71149) were coated onto a 96-well plate overnight. Plates were washed with phosphate-buffered saline (PBS) containing 0.1% Tween (PBS-T), blocked for 1 h at room temperature with PBS-T containing 2% (w/v) bovine serum albumen, and washed again. After washing, vehicle or test samples were added, and the reaction continued for 1 h. As a positive control, PD-L1 inhibitor C1 or anti-CTLA-4 neutralizing antibody were used. Biotinylated hPD–1 (BPS Bioscience, #71109) or biotinylated hCD80 (BPS Bioscience, #71114) was added to each well, and plates were incubated for 2 h at room temperature. After three washes with PBS-T, diluted streptavidin-horseradish peroxidase (HRP) was added to each well, and plates were reacted for 1 h while shaking at low speed. After the reaction, plates were washed three times with PBS-T, and HRP substrates A and B were added. Relative chemiluminescence was measured on a SpectraMax L Luminometer (Molecular Devices, San Jose, California, USA) and expressed as the relative binding activity. The results were normalized to the relative percentage of the vehicle control group. Half-maximal inhibitory concentration (IC50) was calculated using Prism “log[inhibitor] vs. normalized response” equation. All results are presented as the mean of three independent biological replicates. * p < 0.05, ** p < 0.01, *** p < 0.001, compared with the vehicle control group.

In order of falling IC50:
1. O=C1C[C@@H](c2ccc(O)cc2)Oc2cc(O)ccc21 [Compound 13, liquiritigenin]  11.8 µM
2. O=c1c(O)c(-c2ccc(O)c(O)c2)oc2cc(O)cc(O)c12 [Compound 18, quercetin]  5.71 µM
3. O=C1C[C@@H](c2ccc(O)c(O)c2)Oc2cc(O)cc(O)c21 [Compound 7, eriodictyol]  0.04 µM
4. O=c1c(O)c(-c2ccc(O)c(O)c2)oc2cc(O)ccc12 [Compound 9, fisetin]  0.04 µM
